From patent US9963445B2, “Chemical compounds” (SYNGENTA PARTICIPATIONS AG, priority 2013, dated 2018)

Assays:
Type in all cases: in vivo
Alopecurus myosuroides [1] = test: Pre-emergence herbicidal activity, glasshouse pot test; settings: pre-emergence spray, rate 1000 g/ha, evaluated after 13 days, scale 0-5
How it was run: (§1)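 Test species were sown in pots and, after one day under controlled glasshouse conditions, treated with an aqueous spray of the active ingredient in acetone/water containing 0.5% Tween 20. Evaluation followed 13 days later, scoring plant damage from 0 (none) to 5 (total).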

Amaranthus retroflexus [2] = test: as above; settings: pre-emergence spray, rate 1000 g/ha, evaluated after 13 days, scale 0-5
How it was run: as §1

Echinochloa crus-galli [3] = test: as above; settings: pre-emergence spray, rate 1000 g/ha, evaluated after 13 days, scale 0-5
How it was run: as §1

Setaria faberi [4] = test: as above; settings: pre-emergence spray, rate 1000 g/ha, evaluated after 13 days, scale 0-5
How it was run: as §1

Solanum nigrum [5] = test: as above; settings: pre-emergence spray, rate 1000 g/ha, evaluated after 13 days, scale 0-5
How it was run: as §1

zea mays [6] = test: as above; settings: pre-emergence spray, rate 1000 g/ha, evaluated after 13 days, scale 0-5
How it was run: as §1

Alopecurus myosuroides [7] = test: Post-emergence herbicidal activity, glasshouse pot test; design: key: 0 = no damage to plant, 5 = total damage to plant; settings: Application post-emergence, rate 1000 g/ha, evaluated after 13 days
How it was run: (§2)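 Test solution: technical active ingredient in acetone/water (50:50) containing 0.5% Tween 20, applied as an aqueous spray to 8-day-old plants. Evaluation at 13 days, 0–5 damage scale.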

Amaranthus retroflexus [8] = test: as above; design: key: 0 = no damage to plant, 5 = total damage to plant; settings: Application post-emergence, rate 1000 g/ha, evaluated after 13 days
How it was run: as §2

Echinochloa crus-galli [9] = test: as above; design: key: 0 = no damage to plant, 5 = total damage to plant; settings: Application post-emergence, rate 1000 g/ha, evaluated after 13 days
How it was run: as §2

Setaria faberi [10] = test: as above; design: key: 0 = no damage to plant, 5 = total damage to plant; settings: Application post-emergence, rate 1000 g/ha, evaluated after 13 days
How it was run: as §2

zea mays [11] = test: as above; design: key: 0 = no damage to plant, 5 = total damage to plant; settings: Application post-emergence, rate 1000 g/ha, evaluated after 13 days
How it was run: as §2

Solanum nigrum [12] = test: as above; settings: Application post-emergence, rate 1000 g/ha, evaluated after 13 days
Protocol: Seeds of a variety of test species were sown in standard soil in pots. After 8 days cultivation (post-emergence) under controlled conditions in a glasshouse (at 24/16° C., day/night; 14 hours light; 65% humidity), the plants were sprayed with an aqueous spray solution derived from the formulation of the technical active ingredient in acetone/water (50:50) solution containing 0.5% Tween 20 (polyoxyethelyene sorbitan monolaurate, CAS RN 9005-64-5). The test plants were then grown in a glasshouse under controlled conditions (at 24/16° C., day/night; 14 hours light; 65% humidity) and watered twice daily. After 13 days, the test was evaluated (5=total damage to plant; 0=no damage to plant).
ABUTH=Abutilon theophrasti; SOLNI=Solanum nigrum; AMARE=Amaranthus retroflexus; SETFA=Setaria faberi; ALOMY=Alopecurus myosuroides; ECHCG=Echinochloa crus-galli, ZEAMX=zea mays.

Abutilon theophrasti [13] = test: Pre-emergence herbicidal activity, glasshouse pot test; settings: pre-emergence spray, rate 1000 g/ha, evaluated after 13 days, scale 0-5
How it was run: as §1

Abutilon theophrasti [14] = test: Post-emergence herbicidal activity, glasshouse pot test; design: key: 0 = no damage to plant, 5 = total damage to plant; settings: Application post-emergence, rate 1000 g/ha, evaluated after 13 days
How it was run: as §2

Compound	ALOMY damage score, application pre-emergence (Alopecurus myosuroides [1])	AMARE damage score, application pre-emergence (Amaranthus retroflexus [2])	ECHCG damage score, application pre-emergence (Echinochloa crus-galli [3])	SETFA damage score, application pre-emergence (Setaria faberi [4])	SOLNI damage score, application pre-emergence (Solanum nigrum [5])	ZEAMX damage score, application pre-emergence (zea mays [6])	ALOMY herbicidal damage score (Alopecurus myosuroides [7])	AMARE herbicidal damage score (Amaranthus retroflexus [8])	ECHCG herbicidal damage score (Echinochloa crus-galli [9])	SETFA herbicidal damage score (Setaria faberi [10])	ZEAMX herbicidal damage score (zea mays [11])	SOLNI herbicidal damage score (Solanum nigrum [12])	ABUTH damage score, application pre-emergence (Abutilon theophrasti [13])	ABUTH herbicidal damage score (Abutilon theophrasti [14])
CC1=C(Cl)C(=O)N(c2ccc(C)cn2)C1O (stereo not drawn) [AF69]	3	5	4	4	5	1	5	5	5	5	3	5		
CC1=C(Cl)C(=O)N(c2ccc(Cl)cn2)C1O (stereo not drawn) [AF65]	2	5	1	2	4	0	4	5	4	5	1	5		
CC1=C(Cl)C(=O)N(c2ccc(F)cn2)C1O (stereo not drawn) [AF67]	2	5	1	3	3	0	3	5	4	4	1	5		
CC1=C(Cl)C(=O)N(c2cc(Cl)ccn2)C1O (stereo not drawn) [AF66]	2	5	2	3	5	0	4	5	4	5	2	5		
CC1=C(Cl)C(=O)N(c2cc(C(C)C#N)ncn2)C1O (stereo not drawn) [CF18]	4	1	1	3		0	3	2	2	3	1		1	4
CCC1=C(Cl)C(=O)N(c2cc(C(F)(F)F)ccn2)C1O (stereo not drawn) [AF84, 4-chloro-3-ethyl-2-hydroxy-1-[4-(trifluoromethyl)-2-pyridyl]-2H-pyrrol-5-one]	3	5	5	2		0	5	4	5	5	3		2	5
COC1=C(C)C(O)N(c2cc(C(C)F)c(Cl)nn2)C1=O (stereo not drawn) [BI10]	3	5	4	2		2	4	5	5	5	3		5	5
COC1=C(C)C(O)N(c2cc(C(F)(F)F)c(C(=O)CC#N)cn2)C1=O (stereo not drawn) [AI38]	3	5	4	3		2	4	5	5	4	2		1	4
CC1=C(Cl)C(=O)N(c2cc(C(F)(F)F)c(C(F)(F)F)cn2)C1O (stereo not drawn) [AF43]	0	0	0	0		0	2	1	5	5	0		0	1
COC1=C(C)C(O)N(c2cc(C(F)(F)F)c(C(=O)N(C)OC)cn2)C1=O (stereo not drawn) [AI12]	4	5	4	4		4	5	5	5	5	5		5	5
